In US20230151432A1, “KIF18A INHIBITORS FOR TREATMENT OF NEOPLASTIC DISEASES” (AMGEN INC., priority 2020, published 2023):

What was measured:
[1] = test system: normal human foreskin fibroblast cells; test: Arrayscan VTi multiplex imaging assays; assay type: cell-based; settings: 48 hours, top 10 μM (C11) or 1 μM (C9); for total object count and BrdU incorporation: 9-point range
Description: Imaging assays were also carried out to determine the effects of KIF18A inhibitor treatment on normal somatic cells. Arrayscan VTi multiplex imaging assays were carried out with human FSF cells as described below. Briefly, normal human foreskin fibroblast cells were seeded at 6000 cells per well in 96-well imaging plates (Corning) and cultured overnight. The next day, two replicate 96-well plates were treated with DMSO or panel of test agents over a 9-point concentration range using 3-fold dilution with top concentration of 10 μM (KIF18A inhibitor Compound C11, nutlin-3a), 1 μM (KIF18A inhibitor Compound C9, BI-2536, ispinesib, paclitaxel), or 5 μM (palbociclib, GSK923295). After 48 hours of treatment, one plate was pulsed with BrdU (Invitrogen) for 3 hours before fixation. Both 96-well plates fixed with 4% formaldehyde (Thermo Scientific), washed twice with wash buffer [PBS, 1% BSA (Thermo Fisher), 0.2% Triton X-100 (Sigma)]. The first 96-well plate was processed for BrdU epitope detection using acid wash, blocked overnight at 4° C. in wash buffer supplemented with horse serum (4 drops serum per 10 mL) (Vector Labs) and stained with anti-BrdU-AlexaFluor-647 (B35140, Invitrogen, mouse, 3 μg per mL) and anti-p21 (12D1) (2947, Cell Signaling, rabbit, 1:400) antibodies for two hours at room temperature. Cells were washed twice in wash buffer and stained with secondary antibody [anti-rabbit-IgG-AlexaFluor-488 (A1 1034, Invitrogen, 1:2000)] and incubated for one hour at room temperature. The second 96-well plate was blocked overnight at 4° C. in wash buffer supplemented with horse serum (4 drops serum per 10 mL) (Vector Labs) and stained with anti-cl-PARP (214/215) (44-6986, Invitrogen, rabbit, 1:1500) and anti-γH2AX (05-636, Millipore, mouse, 1:1000) antibodies for two hours at room temperature. Cells were washed twice in wash buffer and stained with secondary antibodies [anti-rabbit-IgG-AlexaFluor-647 (A21245, Invitrogen, 1:2000), anti-mouse-IgG-AlexaFluor-488 (A1 1029, Invitrogen, 1:2000)] and incubated for one hour at room temperature. Both 96-well plates were washed twice and counterstained with Hoeschst 33342 (Invitrogen) nuclear dye. Imaging data was collected by widefield imaging on ArrayScan VTi HCS Reader (Thermo Scientific) from 64 fields per well using 20×objective. Valid nuclear object counts were determined for each well as well as the percentage of BrdU, p21, cl-PARP, and γH2AX positive objects for each test agent concentration and DMSO control. Concentration-response heatmaps were generated using GraphPad Prism software (V7.0.4).

[2] = biological target: T1, human KIF18A (residues 1-467) (Homo sapiens, UniProt Q8NI77); test: KIF18A MT-ATPase motor activity, ADP-Glo luminescence assay (Example 19); assay type: biochemical; settings: human KIF18A 4 nM, 30 μM ATP; three independent experiments; read-out: IC50, KIF18A motor activity (MT-ATPase)
T1 construct: human KIF18A (residues 1-467, 4 nM); made in house
Description: A trio of KIF18A inhibitors (Compound C9, Compound C11, and Compound C12) were synthesized and tested in vitro for KIF18A inhibitory activity. […] The values represent mean t SEM from three independent experiments. […] As in vivo studies in mice were planned, the mouse KIF18A inhibitory effects of Compound C9 and C12 were assayed.
KIF18A compounds C9, C11, C12 were 2-fold serially diluted over a 22-point concentration range in DMSO using 384-well plate (Corning). Recombinant truncated kinesin motor proteins (human KIF18A (residues 1-467, 4 nM), mouse KIF18A (residues 1-467, 4 nM)) were expressed and purified. ADP-Glo luminescence assay (Promega) was used to measure the MT-ATPase motor activity. Porcine brain MTs were procured from Cytoskeleton Inc. Compounds were pre-incubated for <30 min in reaction buffer (15 mM Tris, pH 7.5, 10 mM MgCl2, 0.01% Pluronic F-68, 2% DMSO, 1 μM paclitaxel, 30 μg/mL MTs) with motor proteins at concentrations indicated above, 30 μM ATP was added to initiate the enzymatic reaction for 15 min at room temperature (RT). ADP-Glo reagents were added according to manufactures protocol, the luminescence intensity proportional to ADP present was measured using an EnVision plate reader (Perkin Elmer). Raw luminescence signal data was normalized to POC (percentage of positive control) and then Activity (%) was computed [POC=100×(sample signal−negative control signal)+(positive control signal−negative control signal). Activity (%)=POC−100]. The positive control (enzyme+substrate) and negative control (substrate alone) had equivalent concentrations of DMSO. Curve-fitting and IC50 values were determined by 4-parameter non-linear regression equation (variable slope) using GraphPad Prism 7.05 (GraphPad Software).

T1 sequence (Q8NI77 1-467): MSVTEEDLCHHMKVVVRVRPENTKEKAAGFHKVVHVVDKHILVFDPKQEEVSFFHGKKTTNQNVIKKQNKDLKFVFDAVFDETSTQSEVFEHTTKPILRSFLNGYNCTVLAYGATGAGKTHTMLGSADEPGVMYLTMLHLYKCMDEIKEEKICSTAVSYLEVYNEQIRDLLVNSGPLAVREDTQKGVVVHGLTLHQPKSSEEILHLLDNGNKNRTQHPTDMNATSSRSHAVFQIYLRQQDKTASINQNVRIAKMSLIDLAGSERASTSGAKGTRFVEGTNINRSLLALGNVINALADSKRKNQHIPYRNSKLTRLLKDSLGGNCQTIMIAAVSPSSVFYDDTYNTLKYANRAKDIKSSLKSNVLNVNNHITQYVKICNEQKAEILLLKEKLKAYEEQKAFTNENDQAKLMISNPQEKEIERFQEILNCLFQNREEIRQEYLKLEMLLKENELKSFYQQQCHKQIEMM
T1 sequence (P02550 whole entry partner, the tested form may be a part): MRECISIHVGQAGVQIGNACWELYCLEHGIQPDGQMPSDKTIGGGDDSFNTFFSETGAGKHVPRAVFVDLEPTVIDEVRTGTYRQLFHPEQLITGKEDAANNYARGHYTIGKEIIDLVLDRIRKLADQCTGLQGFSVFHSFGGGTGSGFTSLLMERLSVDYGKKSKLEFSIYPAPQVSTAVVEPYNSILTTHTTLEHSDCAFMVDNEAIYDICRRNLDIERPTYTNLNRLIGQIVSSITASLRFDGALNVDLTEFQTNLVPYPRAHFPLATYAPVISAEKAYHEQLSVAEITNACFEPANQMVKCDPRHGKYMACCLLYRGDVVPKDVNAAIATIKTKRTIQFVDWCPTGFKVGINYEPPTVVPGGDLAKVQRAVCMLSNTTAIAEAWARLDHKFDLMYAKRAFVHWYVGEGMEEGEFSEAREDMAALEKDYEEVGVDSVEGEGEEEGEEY
T1 sequence (P02554 whole entry partner, the tested form may be a part): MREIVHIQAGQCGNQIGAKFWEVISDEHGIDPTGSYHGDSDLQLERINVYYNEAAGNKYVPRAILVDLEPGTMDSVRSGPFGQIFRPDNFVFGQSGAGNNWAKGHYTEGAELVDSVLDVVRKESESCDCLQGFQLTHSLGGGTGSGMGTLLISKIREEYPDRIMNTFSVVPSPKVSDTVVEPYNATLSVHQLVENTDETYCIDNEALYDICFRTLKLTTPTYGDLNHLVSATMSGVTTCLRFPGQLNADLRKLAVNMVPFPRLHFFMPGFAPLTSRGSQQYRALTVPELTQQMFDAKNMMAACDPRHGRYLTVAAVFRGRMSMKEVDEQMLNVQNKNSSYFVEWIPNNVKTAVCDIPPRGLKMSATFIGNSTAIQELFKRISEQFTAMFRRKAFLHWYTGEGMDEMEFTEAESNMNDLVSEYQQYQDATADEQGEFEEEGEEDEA

Row | SMILES | total object count and BrdU incorporation [1] | cell cycle arrest measured by the induction of p21 protein expression [1] | induction of DNA damage measured by increase in γHH2X expression [1] | induction of apoptosis measured by cl-PARP expression [1] | IC50 [2] [nM]
1 | CC(C)(C)NS(=O)(=O)c1cccc(NC(=O)c2ccc(S(=O)(=O)NC(C)(C)C)cc2N2CCC3(CC2)CC3)c1 [Compound C9, 4-(N-(tert-butyl)sulfamoyl)-N-(3-(N-(tert-butyl)sulfamoyl)phenyl)-2-(6-azaspiro[2.5]octan-6-yl)benzamide] | behaved as vehicle control treated cells | no cell cycle arrest | no | no induction of apoptosis | 180
2 | CC(C)(CO)Nc1ccc(C(=O)Nc2cccc(S(=O)(=O)C3CCCC3)c2)c(N2CCC3(CC2)CC3)n1 [Compound C11, N-(3-(cyclopentylsulfonyl)phenyl)-6-((1-hydroxy-2-methylpropan-2-yl)amino)-2-(6-azaspiro[2.5]octan-6-yl)nicotinamide] | behaved as vehicle control treated cells | no cell cycle arrest | no | no induction of apoptosis | 70
